Series [1] is described as follows: Whole blood radioactivity of 3H-etoposide with/without oral cyclosporin (Example 6, NP960102). In kind it is in vivo, rats. To be noted: Grp C: CsA 5/PO, then Etoposide 1/PO + CsA 5/PO.
A short description of series [2]: Whole blood radioactivity of oral 3H-etoposide with oral ketoconazole (Example 7, NP960501). In kind it is in vivo, rats. To be noted: ketoconazole 2, 10, 50 mg/kg oral.
The conditions of series [3]: male, Sprague-Dawley, rat, in vivo.
Series [4] concerns highly resistant human KB carcinoma cells. To be noted: cited from earlier work.
For series [5] the following is noted: in vivo, po; cited from earlier work.
A short description of series [6]: Serum paclitaxel after IV or oral paclitaxel with/without oral cyclosporin (Example 1). In kind it is in vivo, Sprague Dawley rats.
For series [7] the following is noted: rat, in vivo, iv.
The nature of series [8]: Total radioactivity and unchanged paclitaxel pharmacokinetics, rats n = 10 (Tables 5A, 5B).
The conditions of series [9]: rat, in vivo, po.
A short description of series [10]: Whole blood and urine radioactivity after radiolabeled paclitaxel with/without cyclosporin (Example 3).

Regarding `COc1cc([C@@H]2c3cc4c(cc3[C@@H](O[C@@H]3O[C@@H]5CO[C@@H](C)O[C@H]5[C@H](O)[C@H]3O)[C@H]3COC(=O)[C@H]23)OCO4)cc(OC)c1O` [Etoposide, etoposide], in series [1], the F% result is recorded as “about 96%”.

In the case of `CC(=O)N1CCN(c2ccc(OCC3COC(Cn4ccnc4)(c4ccc(Cl)cc4Cl)O3)cc2)CC1` (centres unmarked) [Ketoconazole, ketoconazole], the “effect on oral absorption of etoposide compared to etoposide alone” value in [2] is given as “did not enhance the oral absorption of etoposide”. In series [3], the “dose-response of oral absorption of radioactivity” value is reported as “no further increase in oral absorption of radioactivity”. In series [4], the “reversal of MDR” value is given as “reverse MDR”.

`CC(=O)O[C@H]1C(=O)[C@@]2(C)[C@H]([C@H](OC(=O)c3ccccc3)[C@]3(O)C[C@H](OC(=O)[C@H](O)[C@@H](NC(=O)c4ccccc4)c4ccccc4)C(C)=C1C3(C)C)[C@]1(OC(C)=O)CO[C@@H]1C[C@@H]2O` [Paclitaxel, paclitaxel]: in series [5], the “absorbed when administered orally” value is “less than 1%”. For the same compound, the “bioavailability of the paclitaxel in serum” value in series [6] (oral paclitaxel in the absence of cyclosporin) is “less than 1%”; in series [6] (third group: cyclosporin 1 h prior to and with oral paclitaxel) it was 6-7%. The “% Dose in urine (4-24 hr)” value in series [7] amounted to 2.2 % Dose. The “AUC0-24hr, unchanged paclitaxel” value is 4270 ng·h/mL in series [8] (PO + CsA) and 314 ng·h/mL in series [8] (PO Dose 9 mg/kg). In addition, the “AUC0-[…], unchanged paclitaxel” value in [8] (PO + CsA) turned out to be 5410 ng·h/mL; in series [8] (PO Dose) it was 349 ng·h/mL. The “AUC0-00, total radioactivity” value is listed as 4.5 μg equiv.hr/mL in series [8] (Paclitaxel Oral 9 mg/kg) and 15.0 μg equiv.hr/mL in series [8] (Paclitaxel Oral + CsA). Besides, the “AUC0-24hr, total radioactivity” value is 1.4 μg equiv.hr/mL in series [8] (Paclitaxel Oral 9 mg/kg); 8.1 μg equiv.hr/mL in [8] (Paclitaxel Oral + CsA 5 mg/kg 1 hr prior to and concomitantly). Further, in series [9], the “F (%) Based on AUC0-00, total radioactivity” value is recorded as 16.4%. The “AUC0-24, total radioactivity in blood” value in [10] (PO (B)) turned out to be 3.2 μg eq × hr/ml; in [10] (PO+CsA (C), CsA 1 hr prior to and simultaneously) it was 12.1 μg eq × hr/ml. Moreover, in [10] (PO (B) column as printed), the Tmax (usually the time from dosing to the highest level) was found to be 25 h.

(Values after patent US6610735B2, “Method, compositions and kits for increasing the oral bioavailability of pharmaceutical agents” (Baker Norton Pharmaceuticals, Inc., priority 1995, dated 2003).)
